Experimental data as given in patent publication US20070003565A1 (priority 2003, published 2007).
Values after ≈ are worked out from the molar mass of the structure shown. Residues, ends and D or L forms follow the SMILES beside them.

What was measured:
[1] = system: No.04 coronavirus; assay: microbe, parasite or virus in culture; conditions: Severe acute respiratory syndrome coronavirus
[2] = system: No.04 coronavirus
[3] = system: MT-4 cells; assay: Cytotoxicity to MT-4 cells (MTT method); format: cell-based; conditions: 12000 ng/ml to 24 ng/ml, 6 days
Procedure: Then test drugs were added. […] Cell growth was subsequently determined by the MTT method.

Nc1nc(O)c2ncn(COC(CO)CO)c2n1 [Ganciclovir, ganciclovir]
IC50 ([1]; HEK293, read-out: half-inhibitory concentration (IC50)): 11.7 µg/mL (≈ 45.8 µM)
MIC ([1]; read-out: minimum inhibitory concentration (MIC)): 23.4 µg/mL (≈ 91.8 µM)
treatment index (TI) ([2]; CPE method, 293 cells): 256

CC[C@H](C)[C@H](NC(=O)[C@@H](NC(=O)[C@@H]1CCCN1C(=O)[C@H](CC(=O)O)NC(=O)[C@H](Cc1c[nH]cn1)NC(=O)[C@@H](NC(=O)[C@@H](N)CCSC)[C@@H](C)O)C(C)C)C(=O)N[C@@H](CO)C(=O)N[C@@H](CC(C)C)C(=O)N1CCC[C@H]1C(=O)N[C@H](C(=O)N[C@H](C(=O)O)[C@@H](C)O)[C@@H](C)O [HAb18G-AP-1] (H-MTHDPVISLPTT-OH)
cell growth of MT-4 cells (in words) [3]: cell growth was not affected

N=C(N)NCCC[C@H](NC(=O)[C@H](Cc1c[nH]cn1)NC(=O)[C@H](Cc1c[nH]c2ccccc12)NC(=O)[C@H](Cc1c[nH]cn1)NC(=O)[C@H](CCCCN)NC(=O)[C@H](Cc1c[nH]cn1)NC(=O)[C@H](Cc1c[nH]cn1)NC(=O)[C@H](Cc1ccccc1)NC(=O)[C@@H]1CCCN1C(=O)[C@@H](N)Cc1ccc(O)cc1)C(=O)N1CCC[C@H]1C(=O)N[C@@H](CC(N)=O)C(=O)O [HAb18G-AP-6, Tyr Pro Phe His His Lys His Typ His Arg Pro Asn] (H-YPFHHKHWHRPN-OH)
cell growth of MT-4 cells (in words) [3]: cell growth was not affected
half-inhibitory concentration (IC50) ([2]; 24 h): 31.25 ± 0 µg/mL
minimum inhibitory concentration (MIC) ([2]; 24 h): 62.25 ± 0 µg/mL (≈ 37.6 µM)

CC(C)C[C@H](NC(=O)[C@H](CCCCN)NC(=O)[C@@H](N)Cc1ccc(O)cc1)C(=O)N1CCC[C@H]1C(=O)NCC(=O)N[C@@H](Cc1c[nH]cn1)C(=O)N[C@@H](Cc1c[nH]cn1)C(=O)N[C@@H](Cc1c[nH]cn1)C(=O)N[C@@H](Cc1c[nH]cn1)C(=O)N[C@@H](Cc1ccc(O)cc1)C(=O)N[C@@H](CCCNC(=N)N)C(=O)N1CCC[C@H]1C(=O)O [HAb18G-AP-9] (H-YKLPGHHHHYRP-OH)
cell growth of MT-4 cells (in words) [3]: cell growth was not affected
